How the values were obtained:
[1] = tested on: histidine auxotrophs of Salmonella typhimurium; test: Study 005 mutagenic potential (Ames test); assay type: cell-based
Experimental: Although, the studies were not carried out under Good Laboratory Practices (GLP) stipulations, SNV was synthesized under GLP conditions, and all the work was carried out at Tel Aviv University under meticulous conditions using professional staff and established methods (in a designated air-conditioned, clean room and specific luminary flow hood), which all strengthen the trustworthiness of the study results. Ames tests were carried out by Life Science Research Israel Ltd. Ness Ziona, Israel.

albino female rabbits = test: Study 002 acute dermal toxicity in rabbits; assay type: in vivo, rabbit; conditions: single dermal application, 7 mg/site (1000X)
Experimental: (§1) Toxicology. We performed toxicology studies for SNV that consisted of acute subcutaneous, intravenous and oral toxicity in rats, acute dermal toxicity in rabbits, skin sensitization using adjuvant and patch test in guinea pigs, and single and repeated (for 13 weeks) dose toxicity studies in rats. The latter was a 90-days repeated dose toxicity study, consisting of SNV once a day at three different doses to the penis and vagina of male and female rats, respectively. The compound was tested for the treatment of erectile dysfunction. The active dose (7 µg SNV) was chosen as the lowest dose for the study. The highest dosage group in the repeated dose toxicity study received 3,500 µg ([Gozes et al., 1994]). For study 001 (parts 1 through 3), the 1× dose consisted of 0.5 mg SNV dissolved in 7.1 ml vehicle (3.55 ml 10% Sefsol [glycerin monocaprylate] + 3.55 ml isopropanol) and 100µl/animal were administered; the 1000X dose consisted of 91 mg SNV dissolved in 1.3 ml vehicle (0.65 ml 10% Sefsol +0.65 ml isopropanol) and 100µl/animal were administered. For studies 002 through 004, the indicated doses of SNV (Table 1) were dissolved in 0.25 ml 10% Sefsol +0.25 ml 40% isopropanol (vehicle). The methodology for each of the toxicology studies is detailed in Table 1.

[2] = matrix not given, ref Gozes et al., 1994, 1996; cited from earlier work
Source text: (§2) VIP derivatives and conjugates were designed to include a lipophilic moiety or a shortened VIP chain ([Gozes and Fridkin, 1992]; [Gozes et al., 1994]; [Gozes et al., 1995]; [Gozes et al., 1996]; [Gozes et al., 1999]). Stearyl-norleucine-VIP (Stearyl-Nle^17VIP, SNV) is a lipophilic compound consisting of a VIP molecule with an N-terminal attachment of stearic acid to increase cell and tissue bioavailability and an exchange of the oxidation-vulnerable methionine at position 17 with the stable norleucine.

neuroprotection = conditions: ref Ashur-Fabian et al., 1999; cited from earlier work
Source text: as §2

Guinea pigs = test: Study 003 skin sensitization: adjuvant and patch test; assay type: in vivo, guinea pig; conditions: SNV 7 mg/animal (1000X)
Experimental: as §1

rats = test: Study 001–2 acute intravenous toxicity in rats; assay type: in vivo, rat; conditions: for Necrotic reaction at the site of injection: vehicle group 2: 55%
Experimental: as §1

[3] = intravenously administered, 30 min after injection; ref Gozes et al., 1994; cited from earlier work
Source text: VIP and its derivative SNV have been previously studied for immunomodulation properties ([Abad et al., 2006]; [Goursaud et al., 2015]). Here we show the effect of each peptide on the cytokine profile of macrophages in response to LPS and in the osteolytic response to Ti particles using in vitro and in vivo mouse models. […] Furthermore, loading a single dose of SNV into a degradable memb ...

[4] = tested on: Primary murine macrophages/preosteoclasts; test: MTT viability assay; assay type: cell-based, mouse; conditions: 10^-6 M, 20 ng/ml M-CSF, 1, 3 and 5 days of treatment, N=5
Experimental: MTT assay. For proliferation assay, macrophages were plated (4000 cells/well) into 96-well plate with standard medium supplemented with 20 ng of M-CSF. Cells were treated as indicated with either TiP, SNV, VIP (10^−6 M) or vehicle at first day of incubation. Cells viability was determined using dimethylthiazol-diphenyl-tetrazolium-bromide (MTT) after 1, 3 or 5 days. MTT was added to a final concentration of 5 mg/ml and incubated for 4 h at 37°C. After complete solubilization of the die in DMSO, plates were read at 570 nm in a colorimetric plate reader.
FIGURE 4 VIP and SNV alleviate the osteoclastogenic effect of TiP-induced inflammation. (A) Primary BMDM were exposed to TiP and RNA was collected after 24 h. mRNA expression are presented as Mean±SD fold change versus Control. * p<0.05 vs. Control. (B-D) Primary murine preosteoclasts were cultured in 20 ng/ml M-CSF and 50 ng/ml RANKL for 48 h. Conditioned medium from macrophages (Control) and macrophages exposed to Ti particles (Ti, as in A) was then added together with 10^-6M of VIP or SNV (or saline) for 48 h before TRAP staining. Data are Mean±SD for osteoclast % surface area (B) and number per well (C). (D) Representative images all acquired at a 4x original magnification. The scale bar for all images is in the upper left panel. n=8, #p<0.05 vs. Control; *p<0.05 vs. Ti, ANOVA. […]

[5] = tested on: Primary murine preosteoclasts; test: Osteoclastogenesis assay with conditioned medium from TiP-exposed macrophages (TRAP staining); assay type: cell-based, mouse; conditions: 10^-6 M, conditioned medium of TiP-exposed macrophages
Experimental: Osteoclastogenesis assay. Preosteoclasts, prepared like the BMDMs, were plated in 96-well plates (7,000 cells per well, for TRAP staining, see below) or in 6-well plates (200,000 cells per well, for RNA) in standard medium supplemented with 20 ng/ml M-CSF and 50 ng/ml RANKL (R&D Systems, Minneapolis, MN, United States). After 48 h, the medium was replaced by the conditioned medium of BMDM, supplemented with RANKL and M-CSF. Where indicated, 10^−6 M SNV or VIP were added. […], cells were stained using a TRAP kit (Sigma-Aldrich, St. Louis, MO, United States), and multinucleated (>3 nuclei) TRAP-positive cells were defined as osteoclasts. Images were acquired at an original magnification of ×4 (Evos FLC, Life Technologies, MS, United States). The number of osteoclasts and the total osteoclast area were measured using ImageJ software (National Institutes of Health, Bethesda, MD, United States).
FIGURE 4 VIP and SNV alleviate the osteoclastogenic effect of TiP-induced inflammation. (A) Primary BMDM were exposed to TiP and RNA was collected after 24 h. mRNA expression are presented as Mean±SD fold change versus Control. * p<0.05 vs. Control. (B-D) Primary murine preosteoclasts were cultured in 20 ng/ml M-CSF and 50 ng/ml RANKL for 48 h. Conditioned medium from macrophages (Control) and macrophages exposed to Ti particles (Ti, as in A) was then added together with 10^-6M of VIP or SNV (or saline) for 48 h before TRAP staining. Data are Mean±SD for osteoclast % surface area (B) and number per well (C). (D) Representative images all acquired at a 4x original magnification. The scale bar for all images is in the upper left panel. n=8, #p<0.05 vs. Control; *p<0.05 vs. Ti, ANOVA. (E) Primary murine macrophages/preosteoclasts were cultured in 20 ng/ml M-CSF and Ti particles, 10^-6M of VIP or SNV, or saline only. MTT viability assay was performed after 1, 3 and 5 days and presented as optical density values. N=5, no statistical differences were found between the treatment groups. Data are Mean±SD in arbitrary OD units.

[6] = 20 ng/ml M-CSF + 50 ng/ml RANKL, TRAP staining, n=8, vs Ti

Stearyl–HSDAVFTDNYTRLRKQ-Nle-AVKKYLNSILN-NH2 [SNV, Stearyl-norleucine-VIP, lipophilic VIP derivative with N-terminal stearic acid and norleucine in place of methionine at position 17]
Revertant colony numbers over control ([1]; 0.3 to 312.5 µg/plate): No significant increases in revertant colony numbers over control with test material at doses ranging from 0.3 to 312.5 µg/plate
Mutagenic activity, conclusion ([1]; 0.3–312.5 µg/standard bacterial plate): Under the conditions of this study, the test material, SNV was devoid of mutagenic activity
Dermal irritation, conclusion (albino female rabbits): Under the conditions of this study, single dermal application of the vehicle did not cause irritation. The 1000X dose transient effect was barely perceptible
Mortality (albino female rabbits; N = 4): None
Rabbits with slight barely perceptible erythema (albino female rabbits; N = 4, disappeared within 72 h following application): 50%
Half-life [2]: 15 min
Potency relative to VIP in neuroprotection (neuroprotection): 1000 fold
Skin sensitization, conclusion (Guinea pigs; adjuvant and patch test): The study was designed to assess the degree of skin sensitization resulting from intradermal Freund’s complete adjuvant and patch application of SNV. The study showed that both SNV and vehicle alone have no skin sensitization properties
Mortality (Guinea pigs; adjuvant and patch test, daily applications for 3 days): None
Skin reactions (Guinea pigs; intradermal Freund's complete adjuvant and patch application, daily applications for 3 days, 3 males + 3 females per group): only slight erythema and edema within the application site
Mortality (rats; intravenous, 7 µg/rat (1×, group 3)): 7 rats (3 males and 4 females) out of 12 died within 3 h after administration in group 4 (SNV -1000X). One rat died in group 2 within 5–24 h after administration. No mortality occurred in groups 1 and 3
Necrotic reaction at the site of injection (rats; intravenous, 7 µg/rat (group 3)): 58%
Necrotic reaction at the site of injection (rats; intravenous, 7 mg/rat (group 4)): 100%
Reactions: body weight (rats; intravenous, all groups, initial weight loss recovered during the study): Necrotic reaction was observed at the site of injection in 55% group 2, 58% group 3 and 100% group 4. Most surviving rats displayed normal body weight, and some weight loss observed initially was recovered during the study
Acute intravenous median lethal dose, male rats (rats; tail vein, S.D. rats, estimated): 7 mg/male rat
Remaining intact SNV [3]: 10%
Viability of the cells (MTT, optical density) [4]: neither VIP nor SNV affected the viability
Inhibitory effect on osteoclasts compared with VIP [5]: stronger inhibitory effect on osteoclasts than VIP
Osteoclast area [5, 6]: attenuated
Osteoclast number [5, 6]: attenuated
